Assay results as given in patent US20090215758A1, “Use of 2,5-Disubstituted Thiazol-4-One Derivatives in Drugs” (Gruenenthal GmbH, priority 2005, published 2009).
Counter-ions that a name gives are not always drawn.

How the values were obtained:
[1] = biological target: T1, vanilloid receptor 1 (VR1/TRPV1) of the rat species (Rattus norvegicus, UniProt O35433); test: Functional study on vanilloid receptor 1, FLIPR Ca2+ assay in rat dorsal root ganglia cells; format: cell-based; conditions: for inhibition at 10 µM: read-out: VR1 (rat) (% inhibition compared to 10 μM CP); for activation at 10 µM: read-out: VR1 (rat) (% stimulation compared to 10 μM CP); for EC50: unit inferred
T1 construct: The spinal column is removed from beheaded rats; from tissue; host or cells: primary cells from rat dorsal root ganglia (DRGs)
Protocol: The agonistic or antagonistic action of the substances to be studied on the vanilloid receptor 1 (VR1/TRPV1) of the rat species can be determined with the following assay. In this assay, the Ca^2+ current through the receptor channel is quantified with the aid of a Ca^2+-sensitive dye (Fluo-4 type, Molecular Probes Europe BV, Leiden the Netherlands) in a fluorescent imaging plate reader (FLIPR, Molecular Devices, Sunnyvale, USA).
Complete medium: 50 ml HAMS F12 Nutrient Mixture (Gibco Invitrogen GmbH, Karlsruhe, Germany) with 10% by volume of FCS (fetal calf serum, Gibco Invitrogen GmbH, Karlsruhe, Germany, heat-inactivated);
2 mM L-glutamine (Sigma, Munich, Germany);
1% by weight of AA solution (antibiotic/antimycotic solution, PAA, Pasching, Austria) and 25 ng/ml of NGF medium (2.5 S, Gibco Invitrogen GmbH, Karlsruhe, Germany)
Cell culture plate: poly-D-lysine-coated, black 96-hole plates with a clear bottom (96 well black/clear plate, BD Biosciences, Heidelberg, Germany) are additionally coated with laminin (Gibco Invitrogen GmbH, Karlsruhe, Germany) by diluting laminin to a concentration of 100 μg/ml with PBS (Ca—Mg-free PBS, Gibco Invitrogen GmbH, Karlsruhe, Germany). Aliquots having a concentration of 100 μg/ml of laminin are withdrawn and stored at −20° C. The aliquots are diluted with PBS in a ratio of 1:10 to 10 μg/ml of laminin and in each case 50 μl of the solution are pipetted into a well of the cell culture plate. The cell culture plates are incubated at 37° C. for at least two hours, the supernatant solution is removed by suction and the wells are each washed twice with PBS. The coated cell culture plates are stored with supernatant PBS which is not removed until directly before the application of the cells.
The spinal column is removed from beheaded rats and placed directly into cold HBSS buffer (Hank's buffered saline solution, Gibco Invitrogen GmbH, Karlsruhe, Germany), i.e. placed in an ice bath, which has been admixed with 1% by volume of an AA solution (antibiotic/antimycotic solution, PAA, Pasching, Austria). The spinal column is severed longitudinally and removed from the spinal canal together with fasciae. Subsequently, the dorsal root ganglia (DRGs) are removed and in turn stored in cold HBSS buffer admixed with 1% by volume of an AA solution. The DRGs freed completely of blood residues and spinal nerves are in each case transferred to 500 μl of cold type 2 collagenase (PAA, Pasching, Austria) and incubated at 37° C. for 35 minutes. […] After complete incubation, the enzyme solution is cautiously pipetted off and the remaining DRGs are each suspended with 500 μl of complete medium.
The DRGs are each suspended repeatedly, drawn through cannulas No. 1, No. 12 and No. 16 by means of a syringe and transferred to 50 ml Falcon tubes which are made up to 15 ml with complete medium. The contents of each Falcon tube are in each case filtered through a 70 μm Falcon filter insert and centrifuged at 1200 revolutions and room temperature for 10 minutes. The resulting pellet is in each case taken up in 250 μl of complete medium and the cell count is determined.
The number of cells in the suspension is adjusted to 3 times 10^5 per ml and in each case 150 μl of this suspension are added to one well of the cell culture plates coated as described above.
Subsequently, the cells are laden with 2 μM Fluo-4 and 0.01% by volume of Pluronic F127 (Molecular Probes Europe BV, Leiden, the Netherlands) in HBSS buffer (Hank's buffered saline solution, Gibco Invitrogen GmbH, Karlsruhe, Germany) at 37° C. for 30 min, washed 3× with HBSS buffer and, after a further incubation of 15 minutes, used in the FLIPR assay at room temperature for Ca^2+ measurement. The Ca^2+-dependent fluorescence is measured before and after addition of substances (λex=488 nm, λem=540 nm). The quantification is effected by the measurement of the highest fluorescence intensity (FC, fluorescence counts) over the time.

[2] = biological target: T2, VR1 (human) (Homo sapiens, UniProt Q8NER1); test: Functional study on vanilloid receptor (VR1), FLIPR Ca2+ assay in CHO K1 cells stably transfected with the VR1 gene; format: cell-based; conditions: for inhibition at 10 µM / activation at 10 µM: CHO-K1, test compound 10 μM; for activation at 10 µM: read-out: VR1 (human) (% stimulation compared to 10 μM CP); for EC50: unit inferred
T2 construct: expressed in transfected cells; host or cells: CHO K1 cells (ECACC), stably transfected
Excerpt: The agonistic or antagonistic action of the substances to be tested on vanilloid receptor (VR1) can also be determined with the assay which follows. In this assay, the Ca^2+ current through the channel is quantified with the aid of a Ca^2+-sensitive dye (Fluo-4 type, Molecular Probes, Europe BV, Leiden, the Netherlands) in a fluorescent imaging plate reader (FLIPR, Molecular Devices, Sunnyvale, USA).
Chinese hamster ovary cells (CHO K1 cells, European Collection of Cell Cultures (ECACC) Great Britain) are transfected stably with the VR1 gene. For functional studies, these cells are plated out onto poly-D-lysine-coated black 96-well plates with a clear bottom (BD Biosciences, Heidelberg, Germany) in a density of 25 000 cells/well. The cells are incubated overnight at 37° C. and 5% CO2 in a culture medium (Ham's Nutrient Mixture F12, 10% by volume of FCS (fetal calf serum), 18 μg/ml of L-proline). The next day, the cells are incubated with Fluo-4 (Fluo-4 2 μM, Pluronic F127 0.01% by volume, Molecular Probes in HBSS (Hank's buffered saline solution), Gibco Invitrogen GmbH, Karlsruhe, Germany) at 37° C. for 30 minutes. Subsequently, the plates are washed 3 times with HBSS buffer and, after a further incubation of 15 minutes at room temperature, used for Ca^2+ measurement in FLIPR. The Ca^2+-dependent fluorescence is measured before and after addition of the substances to be studied (wavelength λex=488 nm, λem=540 nm). The quantification is effected by measuring the highest fluorescence intensity (FC, fluorescence counts) over the time.
The FLIPR protocol consists of 2 substance additions. First, the substances to be tested (10 μM) are pipetted onto the cells and the Ca current is compared with the control (capsaicin 10 μM) (% activation based on the Ca^2+ signal after addition of 10 μM capsaicin). After incubation for 5 minutes, 100 nM capsaicin is applied and the current of Ca^2+ is likewise determined.

[3] = test compound 10 μM, 5 min incubation, then 100 nM capsaicin, relative to maximum inhibition with 10 μM capsaicin
[4] = test compound 10 μM, Ca2+ signal relative to 10 μM capsaicin (CP)
[5] = 5 min incubation, then 100 nM capsaicin, compared to 10 μM CP
[6] = Ca2+ signal relative to 10 μM capsaicin (CP)

T1 sequence (O35433 whole entry): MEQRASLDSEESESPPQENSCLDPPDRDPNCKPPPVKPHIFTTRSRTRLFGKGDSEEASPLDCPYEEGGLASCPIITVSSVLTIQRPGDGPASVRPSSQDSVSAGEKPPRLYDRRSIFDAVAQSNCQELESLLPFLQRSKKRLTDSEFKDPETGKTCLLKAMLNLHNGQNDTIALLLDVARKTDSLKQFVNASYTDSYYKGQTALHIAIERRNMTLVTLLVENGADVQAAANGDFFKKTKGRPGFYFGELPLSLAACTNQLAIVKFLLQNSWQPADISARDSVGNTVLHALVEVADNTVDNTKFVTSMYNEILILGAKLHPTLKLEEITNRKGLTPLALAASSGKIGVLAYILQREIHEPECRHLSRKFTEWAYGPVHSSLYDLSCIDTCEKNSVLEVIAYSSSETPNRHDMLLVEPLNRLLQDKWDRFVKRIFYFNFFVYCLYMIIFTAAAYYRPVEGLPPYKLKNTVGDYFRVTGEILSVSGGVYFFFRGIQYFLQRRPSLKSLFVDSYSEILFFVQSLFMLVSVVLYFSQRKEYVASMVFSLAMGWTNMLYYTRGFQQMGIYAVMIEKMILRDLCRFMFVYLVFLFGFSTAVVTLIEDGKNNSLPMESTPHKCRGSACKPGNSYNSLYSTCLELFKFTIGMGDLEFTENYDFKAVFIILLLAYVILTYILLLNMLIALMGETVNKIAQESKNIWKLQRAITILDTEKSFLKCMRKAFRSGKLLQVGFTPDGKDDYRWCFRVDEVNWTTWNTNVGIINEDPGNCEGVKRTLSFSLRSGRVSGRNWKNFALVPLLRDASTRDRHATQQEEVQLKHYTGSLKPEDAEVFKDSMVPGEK
T2 sequence (Q8NER1 whole entry): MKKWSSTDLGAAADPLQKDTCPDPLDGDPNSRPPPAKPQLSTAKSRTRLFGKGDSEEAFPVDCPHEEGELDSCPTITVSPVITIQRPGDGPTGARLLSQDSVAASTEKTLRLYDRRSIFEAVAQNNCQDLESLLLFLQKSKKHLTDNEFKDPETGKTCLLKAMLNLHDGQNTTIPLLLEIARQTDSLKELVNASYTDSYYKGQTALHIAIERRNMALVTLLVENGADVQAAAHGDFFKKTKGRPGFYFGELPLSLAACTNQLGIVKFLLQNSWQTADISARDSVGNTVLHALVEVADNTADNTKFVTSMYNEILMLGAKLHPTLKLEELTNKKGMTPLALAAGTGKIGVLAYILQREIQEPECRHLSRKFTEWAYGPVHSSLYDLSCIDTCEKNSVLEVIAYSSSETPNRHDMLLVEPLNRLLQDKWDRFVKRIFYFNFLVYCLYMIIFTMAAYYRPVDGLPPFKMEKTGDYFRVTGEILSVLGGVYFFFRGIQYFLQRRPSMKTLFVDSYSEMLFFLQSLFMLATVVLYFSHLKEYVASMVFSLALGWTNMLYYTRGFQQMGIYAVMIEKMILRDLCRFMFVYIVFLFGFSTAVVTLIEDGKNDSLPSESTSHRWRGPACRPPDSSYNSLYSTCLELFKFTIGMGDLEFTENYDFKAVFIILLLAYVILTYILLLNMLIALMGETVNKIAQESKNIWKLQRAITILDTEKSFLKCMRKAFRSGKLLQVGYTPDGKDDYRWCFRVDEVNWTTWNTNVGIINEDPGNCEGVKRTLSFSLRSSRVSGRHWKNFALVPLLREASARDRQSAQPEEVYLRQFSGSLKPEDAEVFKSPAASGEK

Cc1ccc(C=C2SC(N3CCN(c4ncccc4Cl)CC3)=NC2=O)cc1 [Example 30, 2-[4-(3-chloropyridin-2-yl)piperazin-1-yl]-5-(4-methylbenzylidene)thiazol-4-one]
inhibition at 10 µM [1, 3]: 97% | activation at 10 µM [1, 4]: 0.92% | inhibition at 10 µM [2, 5]: 73.3% | activation at 10 µM [2, 6]: 0.06%

COc1ccc(C=C2SC(N3CCOCC3)=NC2=O)cc1 [Example 228, 5-(4-methoxybenzylidene)-2-morpholin-4-ylthiazol-4-one]
inhibition at 10 µM [1, 3]: 4.84% | activation at 10 µM [1, 4]: 16% | EC50 [1]: 14300 nM | inhibition at 10 µM [2, 5]: 0.61% | activation at 10 µM [2, 6]: 12.2% | EC50 [2]: 26.5 µM

O=C1N=C(N2CCSCC2)SC1=Cc1ccc2ccccc2c1 [Example 54, 5-naphthalen-2-ylmethylene-2-thiomorpholin-4-ylthiazol-4-one]
inhibition at 10 µM [1, 3]: 87.9% | activation at 10 µM [1, 4]: 96.1% | EC50 [1]: 2500 nM | inhibition at 10 µM [2, 5]: 81.7% | activation at 10 µM [2, 6]: 79.6% | EC50 [2]: > 25 µM

CC(C)(C)c1ccc(C=C2SC(N3CCSCC3)=NC2=O)cc1 [Example 198, 5-(4-tert-butylbenzylidene)-2-thiomorpholin-4-ylthiazol-4-one hydrobromide]
inhibition at 10 µM [1, 3]: 97.6% | activation at 10 µM [1, 4]: 60.7% | EC50 [1]: 1120 nM | inhibition at 10 µM [2, 5]: 76.7% | activation at 10 µM [2, 6]: 54.3% | EC50 [2]: 1.02 µM

COc1ccc(C=C2SC(N3CCOCC3)=NC2=O)cc1OCc1ccccc1 [Example 13, 5-(3-benzyloxy-4-methoxybenzylidene)-2-morpholin-4-ylthiazol-4-one]
inhibition at 10 µM [1, 3]: 46.2% | activation at 10 µM [1, 4]: 42.1% | inhibition at 10 µM [2, 5]: 11.1% | activation at 10 µM [2, 6]: 6.15%

Cc1ccc(C=C2SC(N3CCOCC3)=NC2=O)cc1 [Example 218, 5-(4-methylbenzylidene)-2-morpholin-4-ylthiazol-4-one]
VR1 (rat) (% inhibition compared to 10 μM CP) [1, 3]: 78.83% | VR1 (rat) (% stimulation compared to 10 μM CP) [1, 4]: 55.76% | VR1 (human) (% inhibition compared to 10 μM CP) ([2]; test compound 10 μM, 5 min incubation, then 100 nM capsaicin, compared to 10 μM CP): 12.88% | VR1 (human) (% stimulation compared to 10 μM CP) [2, 4]: 17.91%

O=C1N=C(N2CCCCCC2)SC1=CC=Cc1ccccc1 [Example 192, 2-azepan-1-yl-5-(3-phenylallylidene)thiazol-4-one hydrobromide]
inhibition at 10 µM [1, 3]: 2.18% | activation at 10 µM [1, 4]: 1.34% | EC50 [1]: > 50000 nM | inhibition at 10 µM [2, 5]: 10.3% | activation at 10 µM [2, 6]: 16.7% | EC50 [2]: > 50 µM

Cc1ccc(C=C2SC(N3CCN(Cc4ccccc4)CC3)=NC2=O)cc1 [Example 63, 2-(4-benzylpiperazin-1-yl)-5-(4-methylbenzylidene)thiazol-4-one]
inhibition at 10 µM [1, 3]: 70.9% | activation at 10 µM [1, 4]: 0.34% | inhibition at 10 µM [2, 5]: 52.8% | activation at 10 µM [2, 6]: 0%

COCCNC1=NC(=O)C(=Cc2ccc(C(C)(C)C)cc2)S1 [Example 216, 5-(4-tert-butylbenzylidene)-2-(2-methoxyethylamino)thiazol-4-one hydrobromide]
inhibition at 10 µM [1, 3]: 22.1% | activation at 10 µM [1, 4]: 1.24% | EC50 [1]: 1500 nM | inhibition at 10 µM [2, 5]: 51.1% | activation at 10 µM [2, 6]: 2.08% | EC50 [2]: 5.4 µM

CC(C)c1ccc(C=C2SC(N3CCSCC3)=NC2=O)cc1 [Example 136, 5-(4-isopropylbenzylidene)-2-thiomorpholin-4-ylthiazol-4-one]
inhibition at 10 µM [1, 3]: 96.9% | activation at 10 µM [1, 4]: 84% | inhibition at 10 µM [2, 5]: 86.7% | activation at 10 µM [2, 6]: 114%

O=C1N=C(N2CCSCC2)SC1=Cc1cccc(C(=O)N2CCN(c3ncccc3Cl)CC2)c1 [Example 88, 5-{3-[4-(3-chloropyridin-2-yl)piperazine-1-carbonyl]benzylidene}-2-thiomorpholin-4-ylthiazol-4-one]
inhibition at 10 µM [1, 3]: 90.1% | activation at 10 µM [1, 4]: 72.8% | inhibition at 10 µM [2, 5]: 71.1% | activation at 10 µM [2, 6]: 61.4%

O=C1N=C(N2CCOCC2)SC1=Cc1ccccn1 [Example 210, 2-morpholin-4-yl-5-pyridin-2-ylmethylenethiazol-4-one]
inhibition at 10 µM [1, 3]: 23% | activation at 10 µM [1, 4]: 2.22% | inhibition at 10 µM [2, 5]: 3.03% | activation at 10 µM [2, 6]: 1.83%

O=C1N=C(N2CCOCC2)SC1=Cc1cccc(C(F)(F)F)c1 [Example 205, 2-morpholin-4-yl-5-(3-trifluoromethylbenzylidene)thiazol-4-one hydrobromide]
inhibition at 10 µM [1, 3]: 96.4% | activation at 10 µM [1, 4]: 79.6% | inhibition at 10 µM [2, 5]: 103% | activation at 10 µM [2, 6]: 68.2%

O=C1N=C(N2CCSCC2)SC1=CC(Cl)=Cc1ccccc1 [Example 85, 5-(2-chloro-3-phenylallylidene)-2-thiomorpholin-4-ylthiazol-4-one]
inhibition at 10 µM [1, 3]: 77.1% | activation at 10 µM [1, 4]: 54.9% | inhibition at 10 µM [2, 5]: 97.5% | activation at 10 µM [2, 6]: 82.5%

CC(C)(C)c1ccc(C=C2SC(N3CCCC3)=NC2=O)cc1 [Example 199, 5-(4-tert-butylbenzylidene)-2-pyrrolidin-1-ylthiazol-4-one hydrobromide]
inhibition at 10 µM [1, 3]: 69.5% | activation at 10 µM [1, 4]: 42.9% | inhibition at 10 µM [2, 5]: 4.43% | activation at 10 µM [2, 6]: 9.64%

CC(=CC=C1SC(N2CCOCC2)=NC1=O)c1ccc(C)cc1 [Example 33, 2-morpholin-4-yl-5-(3-p-tolylbut-2-enylidene)thiazol-4-one]
inhibition at 10 µM [1, 3]: 64.8% | activation at 10 µM [1, 4]: 49.6% | inhibition at 10 µM [2, 5]: 14.7% | activation at 10 µM [2, 6]: 25.7%
